pKi: −log10 of the molar value.
What was measured:
[1] = molecular target: T1, human PR (progesterone receptor) (Homo sapiens, UniProt P06401); experiment: PR competition binding assay (HEK293 cell lysate); settings: 0.29 nM 3H-methyltrienolone, 293-PR lysate
T1 construct: expressed in transfected cells; host or cells: HEK293
T1 sequence (P06401 1-933): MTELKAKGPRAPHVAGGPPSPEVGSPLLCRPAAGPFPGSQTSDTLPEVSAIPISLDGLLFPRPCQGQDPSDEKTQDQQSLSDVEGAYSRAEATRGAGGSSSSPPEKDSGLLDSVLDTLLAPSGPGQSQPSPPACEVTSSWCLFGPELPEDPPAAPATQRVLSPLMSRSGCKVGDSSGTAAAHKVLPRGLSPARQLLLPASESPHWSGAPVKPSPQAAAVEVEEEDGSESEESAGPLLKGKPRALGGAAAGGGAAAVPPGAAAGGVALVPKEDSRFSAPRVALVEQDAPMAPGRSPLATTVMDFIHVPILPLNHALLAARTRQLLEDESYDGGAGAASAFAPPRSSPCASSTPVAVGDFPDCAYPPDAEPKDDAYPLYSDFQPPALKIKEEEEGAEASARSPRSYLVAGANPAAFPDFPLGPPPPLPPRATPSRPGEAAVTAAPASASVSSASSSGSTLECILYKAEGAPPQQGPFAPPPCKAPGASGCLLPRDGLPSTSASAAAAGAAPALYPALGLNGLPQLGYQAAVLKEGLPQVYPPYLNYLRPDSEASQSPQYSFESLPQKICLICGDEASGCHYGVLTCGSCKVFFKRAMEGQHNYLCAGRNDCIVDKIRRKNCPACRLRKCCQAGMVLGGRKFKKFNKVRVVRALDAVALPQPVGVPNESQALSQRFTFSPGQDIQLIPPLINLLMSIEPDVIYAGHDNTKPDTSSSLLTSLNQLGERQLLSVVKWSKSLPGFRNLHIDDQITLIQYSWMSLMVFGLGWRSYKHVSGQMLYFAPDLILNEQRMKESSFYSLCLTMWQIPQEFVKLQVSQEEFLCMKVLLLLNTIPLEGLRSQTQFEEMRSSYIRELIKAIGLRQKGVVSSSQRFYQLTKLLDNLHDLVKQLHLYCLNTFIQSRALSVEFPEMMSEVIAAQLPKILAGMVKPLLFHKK
Protocol: (§1) Cell lysates from HEK293 cells overexpressing human GR (glucocorticoid receptor), AR (androgen receptor), MR (mineralocorticoid receptor) or PR (progesterone receptor) are used for competition binding assays to determine Ki values for compounds of interest. Briefly, competition binding assays are run in a buffer containing 20 mM HEPES, pH 7.6, 0.2 mM EDTA, 75 mM NaCl, 1.5 mM MgCl2, 20% glycerol, 20 mM sodium molybdate, 0.2 mM DTT, 20 ug/ml aprotinin, and 20 ug/ml leupeptin, using either 0.3 nM ^3H-dexamethasone for GR binding, 0.36 nM ^3H-methyltrienolone for AR binding, 0.25 nM ^3H-aldosterone for MR binding, or 0.29 nM ^3H-methyltrienolone for PR binding, and either 20 ug 293-GR lysate, 22 ug 293-AR lysate, 20 ug 293-MR lysate or 40 ug 293-PR lysate per well. Competing compounds are added at various concentrations in half-log increments. Non-specific binding is determined in the presence of 500 nM dexamethasone for GR binding, 500 nM aldosterone for MR binding, or 500 nM methyltrienolone for AR and PR binding. The binding reaction (140 μl) is incubated overnight at 4° C., then 70 μl of cold charcoal-dextran buffer (containing per 50 ml of assay buffer, 0.75 g of charcoal and 0.25 g of dextran) is added to each reaction. Plates are mixed 8 minutes on an orbital shaker at 4° C. Plates are then centrifuged at 3,000 rpm at 4° C. for 10 minutes. An aliquot of 120 μl of the mixture is transferred to another 96-well plate and 175 μl of Wallac Optiphase “Hisafe 3” scintillation fluid is added to each well. Plates are sealed and shaken vigorously on an orbital shaker. After an incubation of 2 hrs, plates are read in a Wallac Microbeta counter. […] The Kd for ^3H-dexamethasone for GR binding, ^3H-methyltrienolone for AR binding, ^3H-aldosterone for MR binding, or ^3H-methyltrienolone for PR binding, is determined by saturation binding. The IC50 values for compounds are converted to Ki using Cheng-Prusoff equation and the Kd determined by saturation binding assay.
More preferably the compounds of the present invention have PR binding value K; of <10 nM.

[2] = molecular target: T2, human GR (glucocorticoid receptor) (Homo sapiens, UniProt P04150); experiment: GR competition binding assay (HEK293 cell lysate); settings: 0.3 nM 3H-dexamethasone, 293-GR lysate
T2 construct: expressed in transfected cells; host or cells: HEK293
T2 sequence (P04150 1-777): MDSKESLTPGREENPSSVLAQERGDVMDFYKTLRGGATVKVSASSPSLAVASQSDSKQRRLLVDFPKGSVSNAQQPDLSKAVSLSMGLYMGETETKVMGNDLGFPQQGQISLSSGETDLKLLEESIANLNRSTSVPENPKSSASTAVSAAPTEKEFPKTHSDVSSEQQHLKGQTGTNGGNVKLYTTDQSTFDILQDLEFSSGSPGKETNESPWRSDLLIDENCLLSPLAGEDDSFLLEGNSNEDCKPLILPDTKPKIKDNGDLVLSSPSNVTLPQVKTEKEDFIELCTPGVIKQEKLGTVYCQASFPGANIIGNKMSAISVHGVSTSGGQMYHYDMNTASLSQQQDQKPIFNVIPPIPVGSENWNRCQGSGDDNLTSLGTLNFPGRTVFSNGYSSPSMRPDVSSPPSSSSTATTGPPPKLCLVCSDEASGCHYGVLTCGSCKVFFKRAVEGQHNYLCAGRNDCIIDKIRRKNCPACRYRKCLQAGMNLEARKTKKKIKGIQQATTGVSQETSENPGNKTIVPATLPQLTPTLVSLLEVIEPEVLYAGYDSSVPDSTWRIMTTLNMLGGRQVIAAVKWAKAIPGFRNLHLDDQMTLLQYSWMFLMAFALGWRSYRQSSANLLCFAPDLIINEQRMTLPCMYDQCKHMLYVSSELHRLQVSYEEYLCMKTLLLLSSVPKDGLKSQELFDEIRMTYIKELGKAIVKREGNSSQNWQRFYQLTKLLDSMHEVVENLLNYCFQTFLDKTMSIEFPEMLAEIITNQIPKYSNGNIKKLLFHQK
Protocol: as §1

Compound	pKi [1]	pKi [2]
CC(C)n1cc(-c2ccc3oc(=O)ccc3c2)c2ccc(NS(C)(=O)=O)cc21 [Example 96, N-[1-Isopropyl-3-(2-oxo-2H-chromen-6-yl)-1H-indol-6-yl]-methanesulfonamide]	> 7.30	< 6.00
Cc1ccc(-c2cn(C(C)C)c3cc(NS(C)(=O)=O)ccc23)cc1F [Example 84, N-[3-(3-Fluoro-4-methyl-phenyl)-1-isopropyl-1H-indol-6-yl]-methanesulfonamide]	> 7.30	< 6.00
COc1ccc(-c2cn(C(C)C)c3cc(NS(C)(=O)=O)ccc23)cc1C [Example 86, N-[1-Isopropyl-3-(4-methoxy-3-methyl-phenyl)-1H-indol-6-yl]-methanesulfonamide]	> 7.30	< 6.00
CC(C)n1cc(-c2ccc(C#N)n2C)c2ccc(NS(C)(=O)=O)cc21 [Example 78, N-[3-(5-Cyano-1-methyl-1H-pyrrol-2-yl)-1-isopropyl-1H-indol-6-yl]-methanesulfonamide]	> 7.30	6.30 to 7.00
